Assay results published in patent US20220008392A1, “METHODS OF TREATING CANCER” (ASTRAZENECA AB, priority 2018, published 2022).

How the values were obtained:
[1] = tested on: OCILY10 and TMD8 cell lines; assay: Caspase-Glo 3/7 activation after Bfl-1 siRNA knockdown; format: cell-based; conditions: 6 hours
Procedure: Method: OCILY10 and TMD8 cells were grown in logarithmic phase and plated in serum-free siRNA delivery media at 1×10^6 cells/mL in 12-well plates (Dharmacon B-005000). An siRNA SMARTpool targeting Bfl-1 or a scrambled negative control (NTC) were added to respective wells for 24 hours at 0.1 or 0.5 μM (Dharmacon Bcl2a1-597, NTC-D-001910-01). 2 mL of cell culture media was added to all transfected wells and transferred into a 6-well plate for an additional 48 hours. Transfected cells were collected to assess Bfl-1 protein knockdown and cleaved caspase-3 by western blot. Transfected cells were also seeded onto 384 well plates pre-dosed with an 8-point titration of AZD4573 or AZD5991 and incubated for 6 hours. The plates were measured for activation of cleaved caspase using Caspase-Glo 3/7 (Promega) following the manufacturer's protocol.

lymphoma cell lines = assay: 6-hour caspase activation assay (Caspase-Glo 3/7) in 33 lymphoma cell line panel; format: cell-based; conditions: for Emax: 6 hour compound incubation, cell lines highlighted in FIG. 1B, read-out: caspase maximum effect
Procedure: Method: 33 diffuse large B-cell (DLBCL) and Mantle cell (MCL) lymphoma cell lines were seeded onto 384 well plates pre-dosed with 10-point, ½ log titrations of AZD4573 or AZD5991, and incubated for 6 hours. Following the incubation cleaved caspase was measured using Caspase-Glo 3/7 (Promega) following the manufacturer's protocol. Data was analyzed using GeneData Screener and Spotfire.
Method: Cell lysates from 33 lymphoma cell lines were generated in parallel to evaluate protein expression of pro-survival Bcl2 family members. Cell lysates were normalized for protein concentration using the BCA Protein Assay Kit, and western blots were run according to standard protocols. A positive cell line control for expression of Bfl-1, TMD8, was utilized for normalization to other cell lines in the panel. AZD4573 and AZD5991 respective median and geomean caspase EC50's were calculated from cell lines clustered based on high and low Bfl-1 expression, respectively.

TMD8 xenograft = assay: TMD8 ABC-DLBCL xenograft efficacy; format: in vivo, C.B.-17 SCID female mice
Procedure: (§1) Method: AZD4573 was formulated in dimethylacetamide (DMA)/polyethylene glycol 400 (PEG 400)/1% w/v Tween 80 solution 2/30/68 and dosed at 15 mg/kg, intraperitoneally (ip), BID with a 2 hour split on days 1 and 2 with a 5 day dose holiday.
(§2) AZD5991 was formulated for intravenous use in 30% HPBCD (hydroxy-propyl-beta-cyclodextrin) in water-for-injection adjusted to pH 9.0-9.5 up to a concentration of 20 mg/mL (based on parent form). AZD5991 was dosed at 60 mg/kg by tail-vain intravenous injection once weekly.
(§3) 5×10^6 OCILy10 tumor cells or 10×10^6 TMD8 tumor cells were injected subcutaneously in the right flank of C.B.-17 SCID female mice in a volume of 0.1 mL containing 50% matrigel.
(§4) Tumor volumes (measured by caliper), animal body weight, and tumor condition were recorded twice weekly for the duration of the studies. The tumor volume was calculated using the formula: length (mm)×width (mm)^2×0.52. For efficacy studies, growth inhibition from the start of treatment was assessed by comparison of the differences in tumor volume between control and treated groups. Dosing began when mean tumor size reached approximately 150-180 mm^3. CR=complete response.

Mcl-1 and Bfl-1 = Mcl-1 and Bfl-1 mRNA (PCR) and Bcl2 family protein (western blot) modulation in OCILY10 cells; format: cell-based
Procedure: (§5) Method: The ABC-DLBCL cell line OCILY10 was treated for 6 h with a 9 pt, ½ log dose response of AZD4573 and cells were harvested for protein lysates. These cells were also treated with AZD4573 at 100 nM for varying timepoints out to 6 hours. At each timepoint (0, 0.5, 1, 2, 4, 6 hours) cells were harvested for either mRNA isolation, or protein lysates, respectively. mRNA was converted to cDNA and PCR sequence amplification was performed with Mcl1 and Bcl2a1 primers following standard protocols. Protein lysates were normalized for protein concentration using the BCA Protein Assay Kit, and run for western blots according to standard protocols. To ensure expected target engagement was achieved, the blots were probed for the proximal biomarker for CDK9 (pSer2-RNAPolII), along with Mcl-1 and Bfl-1. To gauge the time to induction of apoptosis, cleaved caspase-3 was assessed. A loading control (vinculin) was also utilized for normalization.

OCILY10 xenograft = assay: OCILY10 ABC-DLBCL xenograft efficacy; format: in vivo, C.B.-17 SCID female mice
Procedure: as §1, §2, §3, §4

OCILY10 cells = assay: Cleaved caspase-3 induction over time in OCILY10 cells; format: cell-based; conditions: 100 nM AZD4573
Procedure: as §5

pSer2-RNAP2 = assay: Western blot of proximal CDK9 biomarker in OCILY10 cells treated with AZD4573; format: cell-based
Procedure: as §5

[2] = 15 mg/kg ip BID with 2 hour split on days 1 and 2, 5 day dose holiday

| SMILES | maximum level of apoptosis (cleaved caspase) ([1]; OCILY10 and TMD8, Bfl-1 siRNA knockdown cells) | maximum level of apoptosis (cleaved caspase) ([1]; average of OCILY10 and TMD8, without Bfl-1 knockdown) [%] | Emax (lymphoma cell lines) [%] | TGI (TMD8 xenograft; [2]) [%] | anti-tumor response (TMD8 xenograft; TMD8 xenograft, AZD4573 treatment) | time by which Mcl1 and Bfl1 mRNA expression were reduced to equivalent levels (Mcl-1 and Bfl-1; 100 nM AZD4573) [h] | time of reductions in Mcl-1 and Bfl-1 protein (Mcl-1 and Bfl-1; 100 nM AZD4573) [h] | expression of longer lived proteins Bcl2, Bcl-xL and Bcl-W (Mcl-1 and Bfl-1; after 6 h treatment with AZD4573) | reductions in Mcl-1 and Bfl-1 protein (Mcl-1 and Bfl-1; at concentrations that inhibited pSer2-RNAP2) | geometric mean caspase EC50 difference between AZD5991 and AZD4573 (lymphoma cell lines; Bfl-1 expressing cell lines (n=8)) [fold] | geometric mean caspase EC50 difference between AZD5991 and AZD4573 (lymphoma cell lines; cell lines with no expression of Bfl-1 (n=25)) [fold] | TGI (OCILY10 xenograft; [2]) [%] | anti-tumor response (OCILY10 xenograft; OCILY10 xenograft, AZD4573 treatment) | time at which cleaved caspase was detected (OCILY10 cells) [h] | Expression of pSer2-RNAP2 inhibited (pSer2-RNAP2; 100 nM AZD4573, 30 minutes after dosing) [%] | pSer2-RNAP2 inhibition (pSer2-RNAP2; 6 h, serial dilutions of AZD4573) |
| --- | --- | --- | --- | --- | --- | --- | --- | --- | --- | --- | --- | --- | --- | --- | --- | --- |
| Cc1c2c(nn1C)CSCc1cc(n(C)n1)CSc1cc(c3ccccc3c1)OCCCc1c(C(=O)O)n(C)c3c-2c(Cl)ccc13 (atropisomer, axis not shown) [AZD5991] | over 90% | 45 | < 50 |  |  |  |  |  |  |  |  |  |  |  |  |  |
| CC(=O)N[C@@H]1CCC[C@H](C(=O)Nc2cc(-c3cnn4c3CC(C)(C)C4)c(Cl)cn2)C1 [AZD4573, (1S,3R)-3-acetamido-N-(5-chloro-4-(5,5-dimethyl-5,6-dihydro-4H-pyrrolo [1,2-b]pyrazol-3-yl)pyridin-2-yl)cyclohexanecarboxamide] |  |  | > 50 | 184 | complete tumor regressions | ≤ 2 | 4 | relatively unchanged | Equipotent reductions | 22 | 4 | 198 | complete tumor regressions | 6 | > 80 | inhibited in a dose-dependent manner |
